Results published in ChEMBL document CHEMBL1201862, “PubChem BioAssay data set” (2004).
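How tested: cells in 96-well plates exposed to compound for 48 hours at five concentrations. The concentration for 50% growth inhibition is given as GI50.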 Calls of active or inactive are those of the source. No stated cut-off is given here; in the data, active = GI50 up to about 1.1 µM and inactive = higher.

Legend:
Assay in all cases: DTP human tumour cell line panel, 48 h
OVCAR-3 = tested on: OVCAR-3
A549 = tested on: A549
BT-549 = tested on: BT-549
SK-MEL-28 = tested on: SK-MEL-28
OVCAR-8 = tested on: OVCAR-8
HOP-92 = tested on: HOP-92
SK-MEL-2 = tested on: SK-MEL-2
NCI/ADR-RES = tested on: NCI/ADR-RES
OVCAR-5 = tested on: OVCAR-5
COLO 205 = tested on: COLO 205
EKVX = tested on: EKVX
PC-3 = tested on: PC-3
DU-145 = tested on: DU-145
HT-29 = tested on: HT-29
HCT-116 = tested on: HCT-116
SR = tested on: SR
MCF7 = tested on: MCF7
SF-295 = tested on: SF-295
RPMI-8226 = tested on: RPMI-8226
IGROV-1 = tested on: IGROV-1

Measured: GI50

O=C(Nc1nn(C(=O)c2cccnc2)c(=O)s1)c1ccc(Cl)cc1
inactive: OVCAR-3 43.1 µM | A549 99.8 µM | BT-549 > 100 µM | SK-MEL-28 > 100 µM | OVCAR-8 > 100 µM | HOP-92 61.5 µM | SK-MEL-2 > 100 µM | NCI/ADR-RES > 100 µM | OVCAR-5 > 100 µM | COLO 205 40.6 µM | EKVX 50.6 µM | PC-3 61.1 µM | DU-145 85.9 µM | HT-29 > 100 µM | HCT-116 84.5 µM | SR > 100 µM | MCF7 77.3 µM | SF-295 46.3 µM

Cc1nc(C)c(N2CCN(C(=O)NC(CCC(=O)O)C(=O)O)CC2)c(O)n1 (stereo unspecified)
inactive: OVCAR-3 > 100 µM | A549 > 100 µM | BT-549 > 100 µM | SK-MEL-28 > 100 µM | OVCAR-8 > 100 µM | HOP-92 > 100 µM | NCI/ADR-RES > 100 µM | RPMI-8226 > 100 µM | OVCAR-5 > 100 µM | COLO 205 > 100 µM | EKVX > 100 µM | PC-3 > 100 µM | DU-145 > 100 µM | HT-29 > 100 µM | HCT-116 > 100 µM | SR > 100 µM | MCF7 > 100 µM | IGROV-1 > 100 µM | SF-295 > 100 µM

COc1ccc2c(c1)CCC/C2=N\NS(=O)(=O)c1c(C)cc(C)cc1C
inactive: OVCAR-3 32.4 µM | A549 34.9 µM | BT-549 28.9 µM | SK-MEL-28 35.1 µM | OVCAR-8 30.9 µM | HOP-92 20.3 µM | SK-MEL-2 34.3 µM | NCI/ADR-RES 21.7 µM | OVCAR-5 39.6 µM | COLO 205 23.9 µM | EKVX 23.2 µM | PC-3 28.6 µM | DU-145 25.6 µM | HT-29 20.7 µM | HCT-116 18.3 µM | SR 20.2 µM | MCF7 37.8 µM | IGROV-1 19 µM | SF-295 34.4 µM

Cc1ccc(/N=C2\OP(=O)(Nc3ccc(C)cc3)Oc3ccccc32)cc1 (stereo unspecified)
inactive: OVCAR-3 > 100 µM | A549 > 100 µM | BT-549 > 100 µM | SK-MEL-28 > 100 µM | OVCAR-8 > 100 µM | HOP-92 30 µM | SK-MEL-2 > 100 µM | NCI/ADR-RES > 100 µM | OVCAR-5 > 100 µM | COLO 205 > 100 µM | EKVX > 100 µM | PC-3 > 100 µM | DU-145 > 100 µM | HT-29 > 100 µM | HCT-116 87.9 µM | SR > 100 µM | MCF7 90.6 µM | IGROV-1 > 100 µM | SF-295 > 100 µM

C=C1OC2OC(C)C(NC(=O)OCC(Cl)(Cl)Cl)C(OC(C)=O)C2O1 (stereo unspecified)
inactive: OVCAR-3 > 100 µM | A549 > 100 µM | BT-549 > 100 µM | SK-MEL-28 > 100 µM | OVCAR-8 > 100 µM | HOP-92 > 100 µM | NCI/ADR-RES > 100 µM | RPMI-8226 > 100 µM | OVCAR-5 > 100 µM | COLO 205 > 100 µM | EKVX > 100 µM | PC-3 > 100 µM | DU-145 > 100 µM | HT-29 > 100 µM | HCT-116 > 100 µM | SR > 100 µM | MCF7 > 100 µM | IGROV-1 > 100 µM | SF-295 > 100 µM

COC(=O)c1csc(-c2csc(CCNC(=O)OC(C)(C)C)n2)n1
inactive: OVCAR-3 > 100 µM | A549 > 100 µM | BT-549 40.4 µM | SK-MEL-28 > 100 µM | OVCAR-8 > 100 µM | HOP-92 > 100 µM | NCI/ADR-RES 54.3 µM | RPMI-8226 > 100 µM | OVCAR-5 > 100 µM | COLO 205 > 100 µM | EKVX > 100 µM | PC-3 56.1 µM | DU-145 > 100 µM | HT-29 > 100 µM | HCT-116 > 100 µM | SR 59.7 µM | MCF7 > 100 µM | IGROV-1 > 100 µM | SF-295 > 100 µM

CCC(C(=O)C(=O)C(CC)P1(=O)OC(C)(C)CN1C(C)(C)C)P1(=O)OC(C)(C)CN1C(C)(C)C (stereo unspecified)
inactive: OVCAR-3 > 100 µM | A549 > 100 µM | BT-549 > 100 µM | SK-MEL-28 > 100 µM | OVCAR-8 > 100 µM | HOP-92 45.9 µM | SK-MEL-2 > 100 µM | NCI/ADR-RES > 100 µM | RPMI-8226 43.6 µM | COLO 205 > 100 µM | EKVX > 100 µM | PC-3 > 100 µM | DU-145 > 100 µM | HT-29 > 100 µM | HCT-116 > 100 µM | SR 60.4 µM | MCF7 68.5 µM | IGROV-1 > 100 µM | SF-295 > 100 µM

NC1=Nc2cc(Cl)ccc2Sc2nc3ccccc3n21
inactive: OVCAR-3 > 100 µM | A549 > 24.2 µM | BT-549 > 100 µM | SK-MEL-28 > 100 µM | OVCAR-8 5.09 µM | HOP-92 16.1 µM | SK-MEL-2 20 µM | NCI/ADR-RES > 100 µM | RPMI-8226 5.73 µM | COLO 205 2.5 µM | EKVX 20.3 µM | PC-3 6.76 µM | DU-145 > 100 µM | HT-29 4.53 µM | HCT-116 1.87 µM | SR 2.64 µM | MCF7 > 59.2 µM | IGROV-1 4.7 µM | SF-295 > 95.7 µM
